From BindingDB's records for patent US11945784 (Cornell University, 2024)

Biological target: Serine/threonine-protein kinase/endoribonuclease IRE1 (Homo sapiens, UniProt O75460)
Experiment: In Vitro FRET Assay
Experimental: In vitro FRET assay was performed to evaluate the ability of select compounds to inhibit IRE1, the results of which are summarized in Table 3. To perform the in vitro FRET assay, 1× complete assay buffer (CAB; […], 50 mM sodium citrate pH 7.15, 1 mM magnesium acetate, 0.02% tween 20) was used to dilute SignalChem IRE1α protein to a final concentration of 2 nM. Selected compounds were serially diluted with DMSO in a non-binding black 384-well plate for a total of 15 ul in each well. 2 ul of the serially diluted compound or DMSO control were then added to new wells containing 98 ul of 1×CAB, for a total volume of 100 ul, 10 ul of which were then transferred to wells of a new plate. 5 ul of the diluted IRE1α was then added to each well. 5 ul of a […] was then added to each well. Fluorescence was then read over 30 minutes in kinetic mode (485/515 nm).Two RNA probes were used, XBP1 wildtype (SEQ ID NO: 2) which is able to be spliced by active IRE1α or XBP1 mutant (SEQ ID NO: 3) which is unable to be spliced. Each probe contained a 5′ 6-FAM modification and a 3′ IOWA Black FQ modification.A second FRET assay was performed to assess ATP-mediated inhibition. In this case, compounds and IRE1α were prepared and combined as discussed above, with the addition of ATP up to 1 mM final concentration. This mixture was incubated at room temperature for 60 minutes and then 5 ul of 400 nM XBP1 wildtype or mutant RNA probe was added. Plates were then read over 30 minutes in kinetic mode (485/515 nm) and rate of fluorescence increase calculated for different compound dilutions to determine IC50.

Sequence of Serine/threonine-protein kinase/endoribonuclease IRE1 (O75460 whole entry): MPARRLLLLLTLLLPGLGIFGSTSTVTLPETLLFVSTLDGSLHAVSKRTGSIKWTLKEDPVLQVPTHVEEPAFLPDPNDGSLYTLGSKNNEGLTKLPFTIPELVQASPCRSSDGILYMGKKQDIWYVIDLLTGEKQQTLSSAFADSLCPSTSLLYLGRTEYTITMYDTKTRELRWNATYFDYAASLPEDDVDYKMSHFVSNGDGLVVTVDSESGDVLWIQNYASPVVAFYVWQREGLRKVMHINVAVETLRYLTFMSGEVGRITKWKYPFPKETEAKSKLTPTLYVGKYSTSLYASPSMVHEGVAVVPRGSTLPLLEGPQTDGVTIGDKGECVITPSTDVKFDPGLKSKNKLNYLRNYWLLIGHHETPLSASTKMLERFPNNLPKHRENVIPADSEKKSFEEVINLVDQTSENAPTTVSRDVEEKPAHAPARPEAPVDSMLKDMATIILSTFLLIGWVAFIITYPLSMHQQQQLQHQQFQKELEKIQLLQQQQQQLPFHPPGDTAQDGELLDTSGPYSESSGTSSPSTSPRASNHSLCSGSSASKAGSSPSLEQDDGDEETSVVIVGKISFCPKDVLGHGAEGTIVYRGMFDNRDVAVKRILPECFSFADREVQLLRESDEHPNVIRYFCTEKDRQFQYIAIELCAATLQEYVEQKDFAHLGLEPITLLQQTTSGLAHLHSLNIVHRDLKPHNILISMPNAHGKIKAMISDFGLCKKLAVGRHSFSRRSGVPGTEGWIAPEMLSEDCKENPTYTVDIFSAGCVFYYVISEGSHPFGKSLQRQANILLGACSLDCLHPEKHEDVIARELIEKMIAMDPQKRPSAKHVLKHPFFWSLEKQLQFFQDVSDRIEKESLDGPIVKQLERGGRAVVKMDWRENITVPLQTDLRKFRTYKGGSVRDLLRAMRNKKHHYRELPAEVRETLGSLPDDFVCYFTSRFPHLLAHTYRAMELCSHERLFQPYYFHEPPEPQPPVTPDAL

Compound | IC50
CN(C)C1CCC(Nc2ncc(/C=C/c3ccc(NS(=O)(=O)c4cccc(Cl)c4Cl)nc3)cn2)CC1 (configuration not stated) [US11945784, Compound 63] | < 1 nM
COc1cc(NS(=O)(=O)c2ccccc2Cl)c(F)cc1/C=C/c1cnc(NC2CCC(N(C)C)CC2)nc1 (configuration not stated) [US11945784, Compound 67] | < 1 nM
NC1CCC(Nc2ncc(/C=C/c3ccc(NS(=O)(=O)c4ccccc4Cl)c(F)c3)cn2)CC1 (configuration not stated) [US11945784, Compound 3] | < 1 nM
COc1nc(NS(=O)(=O)c2cnccc2Cl)ccc1/C=C/c1cnc(NC2CCC(N(C)C)CC2)nc1 (configuration not stated) [US11945784, Compound 56] | < 1 nM
CNC1CCC(Nc2ncc(/C=C/c3cc(F)c(NS(=O)(=O)c4ccccc4Cl)nc3OC)cn2)CC1 (configuration not stated) [US11945784, Compound 59] | < 1 nM
CN(C)C1CCC(Nc2ncc(/C=C/c3ccc(NS(=O)(=O)c4ccc(F)cc4Cl)nc3)cn2)CC1 (configuration not stated) [US11945784, Compound 61] | < 1 nM
NC1CCC(Nc2ncc(/C=C/c3ccc(NS(=O)(=O)c4ccccc4Cl)nn3)cn2)CC1 (configuration not stated) [US11945784, Compound 2] | < 1 nM
Cc1nc(NS(=O)(=O)c2cnccc2Cl)ccc1/C=C/c1cnc(NC2CCC(N(C)C)CC2)nc1 (configuration not stated) [US11945784, Compound 62] | < 1 nM
COc1nc(NS(=O)(=O)c2ccccc2Cl)ccc1/C=C/c1cnc(NC2CCC(N3CCSCC3)CC2)nc1 (configuration not stated) [US11945784, Compound 64] | < 1 nM
CN(C)C1CCC(Nc2ncc(/C=C/c3ccc(NS(=O)(=O)c4cccc(F)c4Cl)nc3)cn2)CC1 (configuration not stated) [US11945784, Compound 68] | < 1 nM

Now from value to compound:

IC50 | Compound
< 1 nM | COc1cc(NS(=O)(=O)c2cnccc2Cl)ccc1/C=C/c1cnc(NC2CCC(N(C)C)CC2)nc1 (configuration not stated) [US11945784, Compound 65]
< 1 nM | COc1nc(NS(=O)(=O)c2ccccc2Cl)ccc1/C=C/c1cnc(NC2CCC(N3CCOCC3)CC2)nc1 (configuration not stated) [US11945784, Compound 57]
< 1 nM | CN(C)C1CCC(Nc2ncc(/C=C/c3ccc(NS(=O)(=O)c4ccccc4Cl)nn3)cn2)CC1 (configuration not stated) [US11945784, Compound 52]
< 1 nM | COc1c(/C=C/c2cnc(NC3CCC(N(C)C)CC3)nc2)ccc(NS(=O)(=O)c2ccccc2Cl)c1F (configuration not stated) [US11945784, Compound 66]
< 1 nM | COc1nc(NS(=O)(=O)c2ccccc2Cl)ccc1/C=C/c1cnc(NC2CCC(N3CCCCC3)CC2)nc1 (configuration not stated) [US11945784, Compound 60]
< 1 nM | Cc1nc(NS(=O)(=O)c2ccccc2Cl)c(F)cc1/C=C/c1cnc(NC2CCC(N)CC2)nc1 (configuration not stated) [US11945784, Compound 58]
< 1 nM | COc1nc(NS(=O)(=O)c2ccccc2Cl)c(F)cc1/C=C/c1cnc(NC2CCC(N)CC2)nc1 (configuration not stated) [US11945784, Compound 54]
